Measured values as given in paper PMC5329131 (Biochimica et biophysica acta, 2017).
Where no end group is shown, it is not given here.

Legend:
[1] = system: rabbit skeletal heavy SR vesicles (RyR1); experiment: Ca2+ release from heavy SR vesicles; format: biochemical; settings: for Ca2+ release by vesicles (quality control): response to caffeine, 4-cmc and A23187; for Ca2+ release by RyR agonists vs A23187: same vesicles, data not shown
[2] = molecular target: RyR1 (Oryctolagus cuniculus) (UniProt P11716); experiment: [3H]ryanodine binding; settings: cited from earlier work
Chain of UniProt P11716 (P11716 whole entry): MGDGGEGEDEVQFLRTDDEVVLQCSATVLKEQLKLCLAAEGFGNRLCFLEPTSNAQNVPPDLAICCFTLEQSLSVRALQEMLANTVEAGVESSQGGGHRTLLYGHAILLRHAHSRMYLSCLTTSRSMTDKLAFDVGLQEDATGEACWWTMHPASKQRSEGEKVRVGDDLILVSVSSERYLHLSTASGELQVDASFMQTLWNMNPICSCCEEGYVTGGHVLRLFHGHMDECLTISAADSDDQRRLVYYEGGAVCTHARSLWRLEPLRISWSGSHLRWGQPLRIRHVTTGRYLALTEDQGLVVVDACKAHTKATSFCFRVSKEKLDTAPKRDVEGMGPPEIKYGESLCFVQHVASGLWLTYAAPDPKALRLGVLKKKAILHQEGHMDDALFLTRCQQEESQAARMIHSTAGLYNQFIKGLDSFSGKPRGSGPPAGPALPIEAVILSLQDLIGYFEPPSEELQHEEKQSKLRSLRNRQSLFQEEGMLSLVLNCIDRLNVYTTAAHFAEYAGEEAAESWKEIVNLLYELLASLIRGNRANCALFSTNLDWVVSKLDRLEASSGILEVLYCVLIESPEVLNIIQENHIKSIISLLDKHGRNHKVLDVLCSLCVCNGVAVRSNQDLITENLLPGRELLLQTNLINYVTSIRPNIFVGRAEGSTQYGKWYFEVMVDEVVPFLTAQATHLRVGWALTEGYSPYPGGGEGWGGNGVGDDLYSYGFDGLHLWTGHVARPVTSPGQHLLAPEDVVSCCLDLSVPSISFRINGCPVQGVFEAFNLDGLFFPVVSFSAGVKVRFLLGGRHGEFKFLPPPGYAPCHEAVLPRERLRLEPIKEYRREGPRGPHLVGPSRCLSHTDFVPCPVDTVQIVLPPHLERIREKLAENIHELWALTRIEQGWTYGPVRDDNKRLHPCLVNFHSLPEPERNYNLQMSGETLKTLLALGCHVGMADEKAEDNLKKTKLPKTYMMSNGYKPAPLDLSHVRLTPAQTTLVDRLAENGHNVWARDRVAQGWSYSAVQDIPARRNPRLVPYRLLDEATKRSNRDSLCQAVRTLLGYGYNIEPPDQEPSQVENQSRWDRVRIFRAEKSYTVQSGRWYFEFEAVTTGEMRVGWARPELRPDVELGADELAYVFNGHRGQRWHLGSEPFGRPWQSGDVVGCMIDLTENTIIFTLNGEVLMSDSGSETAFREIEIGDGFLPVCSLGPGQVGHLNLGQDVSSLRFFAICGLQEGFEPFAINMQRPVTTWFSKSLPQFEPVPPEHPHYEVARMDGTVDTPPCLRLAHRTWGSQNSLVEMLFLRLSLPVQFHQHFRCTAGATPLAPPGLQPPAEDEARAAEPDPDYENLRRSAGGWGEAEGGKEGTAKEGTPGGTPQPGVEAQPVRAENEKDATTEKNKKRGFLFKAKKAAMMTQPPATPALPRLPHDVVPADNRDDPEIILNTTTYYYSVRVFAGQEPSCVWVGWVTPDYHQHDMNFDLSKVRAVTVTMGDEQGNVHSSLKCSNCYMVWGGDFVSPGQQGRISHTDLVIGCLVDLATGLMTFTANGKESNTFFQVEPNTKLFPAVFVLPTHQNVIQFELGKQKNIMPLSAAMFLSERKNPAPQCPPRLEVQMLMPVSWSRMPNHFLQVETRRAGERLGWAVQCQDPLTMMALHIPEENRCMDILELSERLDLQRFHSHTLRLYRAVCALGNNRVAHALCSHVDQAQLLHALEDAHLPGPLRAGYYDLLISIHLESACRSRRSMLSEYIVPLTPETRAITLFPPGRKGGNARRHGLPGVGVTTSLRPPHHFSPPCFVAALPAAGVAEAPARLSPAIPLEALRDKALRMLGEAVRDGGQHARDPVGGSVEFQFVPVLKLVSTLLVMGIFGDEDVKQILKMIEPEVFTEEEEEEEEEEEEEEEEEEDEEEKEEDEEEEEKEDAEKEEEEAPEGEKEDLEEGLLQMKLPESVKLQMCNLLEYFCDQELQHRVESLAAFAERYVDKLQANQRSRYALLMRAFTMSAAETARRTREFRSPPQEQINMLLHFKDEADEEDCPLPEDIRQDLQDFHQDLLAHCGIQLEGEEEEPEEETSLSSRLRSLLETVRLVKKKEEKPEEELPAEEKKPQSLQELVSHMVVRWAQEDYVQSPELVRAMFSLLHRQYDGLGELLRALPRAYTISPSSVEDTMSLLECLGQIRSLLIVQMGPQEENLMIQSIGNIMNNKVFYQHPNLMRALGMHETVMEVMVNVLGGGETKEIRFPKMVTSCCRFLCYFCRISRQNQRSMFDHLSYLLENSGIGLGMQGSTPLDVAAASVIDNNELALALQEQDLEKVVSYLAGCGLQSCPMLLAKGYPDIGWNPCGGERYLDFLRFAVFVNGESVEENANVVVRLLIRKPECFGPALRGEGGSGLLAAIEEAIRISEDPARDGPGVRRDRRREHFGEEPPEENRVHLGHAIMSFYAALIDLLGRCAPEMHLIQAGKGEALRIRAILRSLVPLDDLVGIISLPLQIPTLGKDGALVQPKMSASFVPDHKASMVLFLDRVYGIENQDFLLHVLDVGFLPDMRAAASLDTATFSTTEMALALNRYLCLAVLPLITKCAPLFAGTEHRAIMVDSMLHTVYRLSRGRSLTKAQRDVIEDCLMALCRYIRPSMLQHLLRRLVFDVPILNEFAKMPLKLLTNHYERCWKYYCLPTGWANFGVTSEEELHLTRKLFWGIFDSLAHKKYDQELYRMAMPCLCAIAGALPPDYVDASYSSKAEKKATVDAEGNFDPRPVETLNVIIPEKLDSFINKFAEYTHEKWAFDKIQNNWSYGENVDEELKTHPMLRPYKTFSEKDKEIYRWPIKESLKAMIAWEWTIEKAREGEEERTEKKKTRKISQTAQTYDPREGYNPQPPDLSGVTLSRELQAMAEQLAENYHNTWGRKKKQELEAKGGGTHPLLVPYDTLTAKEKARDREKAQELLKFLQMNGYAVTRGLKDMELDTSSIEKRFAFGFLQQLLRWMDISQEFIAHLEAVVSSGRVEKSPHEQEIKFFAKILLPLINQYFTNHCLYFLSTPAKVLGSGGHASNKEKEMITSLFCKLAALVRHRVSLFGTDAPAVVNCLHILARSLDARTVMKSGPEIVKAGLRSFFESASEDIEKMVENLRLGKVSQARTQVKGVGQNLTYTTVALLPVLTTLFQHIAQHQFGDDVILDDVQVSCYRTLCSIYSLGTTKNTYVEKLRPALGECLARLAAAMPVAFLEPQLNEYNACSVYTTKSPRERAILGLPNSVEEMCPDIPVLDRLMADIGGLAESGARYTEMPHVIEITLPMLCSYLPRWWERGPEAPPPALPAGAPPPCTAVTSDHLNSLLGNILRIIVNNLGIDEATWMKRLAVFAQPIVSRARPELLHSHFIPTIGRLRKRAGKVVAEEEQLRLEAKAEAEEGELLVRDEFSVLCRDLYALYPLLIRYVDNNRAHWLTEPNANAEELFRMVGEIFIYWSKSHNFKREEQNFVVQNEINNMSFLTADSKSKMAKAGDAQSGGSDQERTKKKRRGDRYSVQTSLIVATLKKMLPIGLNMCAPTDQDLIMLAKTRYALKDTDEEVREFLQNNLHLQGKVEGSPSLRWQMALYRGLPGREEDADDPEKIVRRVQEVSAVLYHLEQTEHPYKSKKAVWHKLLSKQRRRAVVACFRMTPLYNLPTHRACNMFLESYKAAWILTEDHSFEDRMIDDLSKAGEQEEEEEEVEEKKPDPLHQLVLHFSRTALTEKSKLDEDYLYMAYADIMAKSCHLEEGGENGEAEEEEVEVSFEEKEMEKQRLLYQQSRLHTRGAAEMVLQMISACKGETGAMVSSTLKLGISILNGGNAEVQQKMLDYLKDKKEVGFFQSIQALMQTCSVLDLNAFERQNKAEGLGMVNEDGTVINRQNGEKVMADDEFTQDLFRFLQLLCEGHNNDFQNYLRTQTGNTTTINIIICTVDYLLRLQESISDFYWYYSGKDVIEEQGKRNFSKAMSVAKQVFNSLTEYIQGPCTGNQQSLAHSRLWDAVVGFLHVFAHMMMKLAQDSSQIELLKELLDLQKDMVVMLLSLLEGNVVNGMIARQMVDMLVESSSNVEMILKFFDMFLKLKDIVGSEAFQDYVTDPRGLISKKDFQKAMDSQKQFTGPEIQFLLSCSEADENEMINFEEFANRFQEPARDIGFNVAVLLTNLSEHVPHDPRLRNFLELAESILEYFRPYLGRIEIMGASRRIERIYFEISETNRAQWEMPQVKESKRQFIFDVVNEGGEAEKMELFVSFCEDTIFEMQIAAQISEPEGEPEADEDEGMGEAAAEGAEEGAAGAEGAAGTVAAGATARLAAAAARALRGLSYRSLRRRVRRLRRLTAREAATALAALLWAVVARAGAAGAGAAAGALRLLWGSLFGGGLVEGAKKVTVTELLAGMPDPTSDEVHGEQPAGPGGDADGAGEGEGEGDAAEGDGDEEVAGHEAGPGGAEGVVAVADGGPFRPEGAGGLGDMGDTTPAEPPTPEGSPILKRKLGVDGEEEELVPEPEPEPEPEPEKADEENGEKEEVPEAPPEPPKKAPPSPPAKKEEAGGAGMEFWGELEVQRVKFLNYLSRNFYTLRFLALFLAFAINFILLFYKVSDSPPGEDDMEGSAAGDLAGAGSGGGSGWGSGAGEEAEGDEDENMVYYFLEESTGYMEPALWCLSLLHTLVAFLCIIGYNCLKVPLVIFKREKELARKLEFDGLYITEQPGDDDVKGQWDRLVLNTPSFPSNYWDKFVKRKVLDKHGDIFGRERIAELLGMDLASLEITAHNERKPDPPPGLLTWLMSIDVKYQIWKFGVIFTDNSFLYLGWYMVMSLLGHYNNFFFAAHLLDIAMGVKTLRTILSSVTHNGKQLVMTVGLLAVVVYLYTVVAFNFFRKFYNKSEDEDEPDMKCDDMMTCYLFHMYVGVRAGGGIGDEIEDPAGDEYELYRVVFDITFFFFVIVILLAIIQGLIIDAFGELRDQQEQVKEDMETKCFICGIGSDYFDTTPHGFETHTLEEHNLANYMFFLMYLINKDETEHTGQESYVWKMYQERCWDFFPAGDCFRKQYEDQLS

RyRs = settings: cited from earlier work
RyR1 = settings: alanine scanning of Imperacalcin; ref Lee et al., 2004; cited from earlier work
SR Ca2+ release (RyR1) = settings: ref Xiao et al., 2016; cited from earlier work

Cc1cc(O)ccc1Cl [4-cmc]
Ca2+ release by vesicles (quality control) [1]: equivalent amount of Ca^2+ | Ca2+ release by RyR agonists vs A23187 [1]: release roughly equivalent levels of Ca^2+ in these vesicles as that emptied by A23187

CNc1ccc2oc(C[C@H]3O[C@@]4(CC[C@H]3C)O[C@H]([C@H](C)C(=O)c3ccc[nH]3)[C@H](C)C[C@H]4C)nc2c1C(=O)O [A23187]
Ca2+ release by vesicles (quality control) [1]: equivalent amount of Ca^2+

Cn1c(=O)c2c(ncn2C)n(C)c1=O [Caffeine, caffeine]
Ca2+ release by vesicles (quality control) [1]: equivalent amount of Ca^2+ | Ca2+ release by RyR agonists vs A23187 [1]: release roughly equivalent levels of Ca^2+ in these vesicles as that emptied by A23187

Hadrucalcin (from UniProt B8QG00)
Kd [2]: 14.8 nM

Hemicalcin (from UniProt A0A1L4BJ42)
Kd [2]: 6.9 nM

Imperacalcin (from UniProt P59868)
Kd [2]: 8.7 nM

Imperacalcin: 33-amino acid calcin from Pandinus imperator, UniProt P59868 (GDCLPHLKRCKADNDCCGKKCKRRGTNAEKRCR; ends and bridges not checked; cysteine pairing not given here; UniProt P59868 1-33, looked up)
binding site by single RyR1 channel analysis (RyRs; ref Tripathy et al., 1998): enters the channel vestibule and binds to a single site located within the ion conduction pathway and close to the voltage drop of the channel | effect on RyR gating (RyRs; ref not given): increases their activity by inducing the appearance of a long-lived subconductance state

Maurocalcin (from UniProt P60254)
Kd [2]: 26.4 nM

N14A: alanine-scanning mutant N14A of Imperacalcin (GDCLPHLKRCKADADCCGKKCKRRGTNAEKRCR; ends and bridges not checked; cysteine pairing not given here; UniProt P59868 1-33, looked up, variant N14A)
influence of mutation on binding affinity (RyR1): almost no influence on binding affinity

Opicalcin1 (from UniProt P60252)
Kd [2]: 0.3 nM

Opicalcin2 (from UniProt P60253)
Kd [2]: 3.2 nM

Opicalcin2: calcin from Opistophthalmus carinatus, UniProt P60253 (GDCLPHLKRCKENNDCCSKKCKRRGANPEKRCR; ends and bridges not checked; cysteine pairing not given here; UniProt P60253 34-66, looked up)
binding affinity vs ability to stimulate Ca2+ release (SR Ca2+ release (RyR1)): strong binding affinity but weaker ability to stimulate Ca^2+ release

Urocalcin (from UniProt L0GBR1)
Kd [2]: 376 nM

Vejocalcin (from UniProt P0DPT1)
Kd [2]: 3.7 nM
